Test results: publication PMC3745005 (Journal of biomolecular screening, 2012)

Molecular target: PDE4A (catalytic domain of PDE4A10) (Homo sapiens, UniProt P27815)
Experiment: enthalpy array nanocalorimetry, cAMP hydrolysis
Assay type: biochemical

Sequence of PDE4A (catalytic domain of PDE4A10) (P27815 351-683): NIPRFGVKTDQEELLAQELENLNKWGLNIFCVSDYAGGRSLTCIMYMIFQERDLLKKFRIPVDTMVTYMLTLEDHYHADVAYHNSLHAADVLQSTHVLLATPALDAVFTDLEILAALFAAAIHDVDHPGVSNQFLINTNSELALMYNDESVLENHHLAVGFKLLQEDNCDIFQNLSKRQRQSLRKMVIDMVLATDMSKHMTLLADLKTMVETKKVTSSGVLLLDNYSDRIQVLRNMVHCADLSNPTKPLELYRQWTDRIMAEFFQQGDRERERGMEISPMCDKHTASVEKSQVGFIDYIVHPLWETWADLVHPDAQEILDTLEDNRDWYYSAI

Ki: 8.3 ± 1.5 µM
Compound: CC(C)Cn1c(=O)n(C)c(=O)c2[nH]cnc21 [IBMX]
